Measurements published in patent US12280040B2, “Compositions and methods of a dihydroisoxazole compound that reduces ectoparasite infestations on fish” (EVAH Atlantic Inc., priority 2023, dated 2025).

Key:
Lepeophtherius salmonis = conditions: 1.0 mg/kg/d in medicated feed to Atlantic salmon for 7 consecutive days; lice counted 10 days after end of treatment; cited from earlier work
Lepeophtheirus salmonis = experiment: Efficacy of medicated feed against an existing experimental sea lice infestation on Atlantic salmon post-smolts (Example 1); assay type: in vivo
Experimental: A randomized, blinded, parallel-group, negative-controlled study was conducted in which, the active ingredient was administered in medicated feed to laboratory-maintained Atlantic salmon (Salmo salar) post-smolts in seawater. Smolts were experimentally infested with sea lice (Lepeophtheirus salmonis) under laboratory conditions prior to being fed the medicated diet to assess the efficacy of the active ingredient in reducing the number of sea lice/fish.
Healthy Atlantic salmon post-smolts (n=750) were selected for enrollment and distributed sequentially across ten (10) study tanks. Fish were weighed individually during the allocation of fish to tanks on study day (SD)-95, with SD 0 serving as the first day of treatment. Fish were weighed on SD −2, +8, +18, +22, and +30. The fish weights on SD −2 were used to estimate the average weight of all fish and used to determine the feeding amount during the treatment period (SD 0−+6). A target of total of 10 fish/tank were lethally sampled, lice-counted, and weight and length were measured. The mean weight of fish in tanks on SD −2 was 829.9±161.7 g.
Atlantic salmon post-smolts were infested once with sea lice using an experimental challenge model. About 50 copepodids (Lepeophtheirus salmonis) per fish were added to each tank on SD −17. During the study the water temperature varied between 8 and 12° C. The water oxygen saturation was consistently above 80% throughout the study.
Five treatment groups were randomly assigned to ten study tanks so that there were 2 tanks per treatment group. Study personnel were blinded as to the identity of the treatments for each tank.
Sea lice were counted four times during the study. All sampled fish were euthanized and lice counted. The baseline count occurred on SD −2 (with 10 fish per tank), corresponding to ˜160 degree days (15 d) post-infestation. The time was sufficient for lice development to the chalimus stage. Count 1 occurred on SD +8 (with 20 fish per tank) corresponding to ˜260 degree days (25 d) post infestation and 2 days post treatment. The time was sufficient for lice development into chalimus and pre-adult stages in the control tanks. Count 2 occurred on SD +18 (with 20 fish per tank) corresponding to ˜360 degree days (35 d) post infestation and 12 days post treatment. The time was sufficient for lice development into adult males and females in the control tanks. Count 3 occurred on SD +22 (with 20 fish per tank) corresponding to ˜400 degree days (39 d) post infestation and 16 days post treatment. The time was sufficient for lice development into adult males and females with no chalimus stages present in the control tanks.
Medicated feed was prepared by dry coating commercially available fish feed pellets with a premix containing the active ingredient to reach a content of about 1.6, 4.0. 8.0 and 19.9 mg/kg. The fish pellets were then coated with feed grade herring fish oil at an inclusion rate of about 0.75% w/w (7.5 g/kg feed) The consumption rate of the medicated feed was set to 0.628% body weight.
Treatment efficacy was computed for total number of sea lice/fish and total number of mobile life stages, i.e., preadult & adult sea lice/fish for each post-treatment sea lice counting occasion. For the total number of attached/fish, treatment efficacy was computed at the first count post-treatment. Percent efficacy was computed using Abbott's formula for each treatment group compared to control as follows:
[formula] where MC and MT are the arithmetic means of sea lice counts in the untreated control and S-roxapin-treated groups, respectively.
Treatments were considered efficacious when the percent efficacy was ≥90% for treated groups compared to untreated control groups.
The mean sea lice abundance was reported for different parasite life stages (attached, mobile, and total (attached and mobile together)) and computed as the number of lice on salmon divided by the number of sampled fish per tank. […]

[1] = 0.010 mg/kg/d in feed 7 d, 2 DPT
[2] = 0.010 mg/kg/d in feed 7 d, 12 DPT
[3] = 0.010 mg/kg/d in feed 7 d, 16 DPT
[4] = 0.025 mg/kg/d in feed 7 d, 2 DPT
[5] = 0.025 mg/kg/d in feed 7 d, 12 DPT
[6] = 0.025 mg/kg/d in feed 7 d, 16 DPT
[7] = 0.050 mg/kg/d in feed 7 d, 2 DPT
[8] = 0.050 mg/kg/d in feed 7 d, 12 DPT
[9] = 0.050 mg/kg/d in feed 7 d, 16 DPT
[10] = 0.125 mg/kg/d in feed 7 d, 2 DPT
[11] = 0.125 mg/kg/d in feed 7 d, 12 DPT
[12] = 0.125 mg/kg/d in feed 7 d, 16 DPT

## C#CCNC(=O)CNC(=O)c1sc(C2=NO[C@@](c3cc(Cl)c(Cl)c(Cl)c3)(C(F)(F)F)C2)cc1C [S-roxapin, (S)-3-methyl-N-(2-oxo-2-(prop-2-yn-1-ylamino)ethyl)-5-(5-(3,4,5-trichlorophenyl)-5-(trifluoromethyl)-4,5-dihydroisoxazol-3-yl)thiophene-2-carboxamide]
Lepeophtherius salmonis
  efficacy against chalimus and pre-adult/adult stages of the sea louse: 100%
Lepeophtheirus salmonis; [1]
  Number of Attached Lice/Fish % Efficacy: 96.2%
  Number of Attached Lice/Fish Mean ± SD: 0.1 ± 0.3 lice/fish
  Number of Mobile Lice/Fish % Efficacy: 89.1%
  Number of Mobile Lice/Fish Mean ± SD: 1.7 ± 2.2 lice/fish
  Total Number of Lice/Fish % Efficacy: 90.3%
  Total Number of Lice/Fish Mean ± SD: 1.8 ± 2.4 lice/fish
Lepeophtheirus salmonis; [2]
  Number of Attached Lice/Fish Mean ± SD: 0.0 ± 0.0 lice/fish
  Number of Mobile Lice/Fish % Efficacy: 94.1%
  Number of Mobile Lice/Fish Mean ± SD: 1.1 ± 3.0 lice/fish
  Total Number of Lice/Fish % Efficacy: 94.1%
  Total Number of Lice/Fish Mean ± SD: 1.1 ± 3.0 lice/fish
Lepeophtheirus salmonis; [3]
  Number of Attached Lice/Fish Mean ± SD: 0.0 ± 0.0 lice/fish
  Number of Mobile Lice/Fish % Efficacy: 97.7%
  Number of Mobile Lice/Fish Mean ± SD: 0.5 ± 0.7 lice/fish
  Total Number of Lice/Fish % Efficacy: 97.7%
  Total Number of Lice/Fish Mean ± SD: 0.5 ± 0.7 lice/fish
Lepeophtheirus salmonis; [4]
  Number of Attached Lice/Fish % Efficacy: 98.5%
  Number of Attached Lice/Fish Mean ± SD: 0.1 ± 0.1 lice/fish
  Number of Mobile Lice/Fish % Efficacy: 98.8%
  Number of Mobile Lice/Fish Mean ± SD: 0.2 ± 0.3 lice/fish
  Total Number of Lice/Fish % Efficacy: 98.8%
  Total Number of Lice/Fish Mean ± SD: 0.2 ± 0.3 lice/fish
Lepeophtheirus salmonis; [5]
  Number of Attached Lice/Fish Mean ± SD: 0.1 ± 0.2 lice/fish
  Number of Mobile Lice/Fish % Efficacy: 99.9%
  Number of Mobile Lice/Fish Mean ± SD: 0.0 ± 0.1 lice/fish
  Total Number of Lice/Fish % Efficacy: 99.5%
  Total Number of Lice/Fish Mean ± SD: 0.1 ± 0.2 lice/fish
Lepeophtheirus salmonis; [6]
  Number of Attached Lice/Fish Mean ± SD: 0.0 ± 0.0 lice/fish
  Number of Mobile Lice/Fish % Efficacy: 99.9%
  Number of Mobile Lice/Fish Mean ± SD: 0.0 ± 0.1 lice/fish
  Total Number of Lice/Fish % Efficacy: 99.9%
  Total Number of Lice/Fish Mean ± SD: 0.0 ± 0.1 lice/fish
Lepeophtheirus salmonis; [7]
  Number of Attached Lice/Fish % Efficacy: 92.3%
  Number of Attached Lice/Fish Mean ± SD: 0.3 ± 0.3 lice/fish
  Number of Mobile Lice/Fish % Efficacy: 99.7%
  Number of Mobile Lice/Fish Mean ± SD: 0.1 ± 0.1 lice/fish
  Total Number of Lice/Fish % Efficacy: 98.4%
  Total Number of Lice/Fish Mean ± SD: 0.3 ± 0.3 lice/fish
Lepeophtheirus salmonis; [8]
  Number of Attached Lice/Fish Mean ± SD: 0.0 ± 0.0 lice/fish
  Number of Mobile Lice/Fish Mean ± SD: 0.1 ± 0.2 lice/fish
  Total Number of Lice/Fish % Efficacy: 99.6%
  Total Number of Lice/Fish Mean ± SD: 0.1 ± 0.2 lice/fish
Lepeophtheirus salmonis; [9]
  Number of Attached Lice/Fish Mean ± SD: 0.0 ± 0.0 lice/fish
  Number of Mobile Lice/Fish % Efficacy: 99.7%
  Number of Mobile Lice/Fish Mean ± SD: 0.1 ± 0.2 lice/fish
  Total Number of Lice/Fish % Efficacy: 99.7%
  Total Number of Lice/Fish Mean ± SD: 0.1 ± 0.2 lice/fish
Lepeophtheirus salmonis; [10]
  Number of Attached Lice/Fish % Efficacy: 93.8%
  Number of Attached Lice/Fish Mean ± SD: 0.2 ± 0.3 lice/fish
  Number of Mobile Lice/Fish % Efficacy: 99.8%
  Number of Mobile Lice/Fish Mean ± SD: 0.0 ± 0.1 lice/fish
  Total Number of Lice/Fish % Efficacy: 98.8%
  Total Number of Lice/Fish Mean ± SD: 0.2 ± 0.4 lice/fish
Lepeophtheirus salmonis; [11]
  Number of Attached Lice/Fish Mean ± SD: 0.0 ± 0.1 lice/fish
  Number of Mobile Lice/Fish % Efficacy: 100.0%
  Number of Mobile Lice/Fish Mean ± SD: 0.0 ± 0.0 lice/fish
  Total Number of Lice/Fish % Efficacy: 99.9%
  Total Number of Lice/Fish Mean ± SD: 0.0 ± 0.1 lice/fish
Lepeophtheirus salmonis; [12]
  Number of Attached Lice/Fish Mean ± SD: 0.1 ± 0.2 lice/fish
  Number of Mobile Lice/Fish % Efficacy: 99.9%
  Number of Mobile Lice/Fish Mean ± SD: 0.1 ± 0.2 lice/fish
  Total Number of Lice/Fish % Efficacy: 99.6%
  Total Number of Lice/Fish Mean ± SD: 0.1 ± 0.2 lice/fish
Lepeophtheirus salmonis; dosages of 0.025, 0.050 and 0.125 mg/kg/d in medicated feed over 7 consecutive days
  efficacy compared with the lowest dosage (0.010 mg/kg/d): significantly higher efficacy
Lepeophtheirus salmonis; medicated feed over 7 consecutive days to salmon, provisionally concluded
  observed minimum efficacious dosage relative to U.S. Pat. No. 9,920,037 (1.0 mg/kg/d): 20-40 times lower
